Patent US8648092B2, “Imidazo[1,2-a]pyridine derivatives: preparation and pharmaceutical applications” (MEI Pharma, priority 2005, dated 2014)

Legend:
[1] = biological target: HDAC1 enzyme (recombinant GST-HDAC1) (Homo sapiens (Human), UniProt Q13547); test: In vitro HDAC assay for determination of IC50 values (BIOMOL fluorescent-based HDAC activity assay); assay type: biochemical; details: Flur de lys substrate, 2 h room temperature, read-out: IC50 (HDAC 1)
Protocol: Biological Testing and Enzyme Assays Recombinant GST-HDAC1 Protein Expression and Purification
Human cDNA library was prepared using cultured SW620 cells. Amplification of human HDAC1 coding region from this cDNA library was cloned separately into the baculovirus expression pDEST20 vector (GATEWAY Cloning Technology, Invitrogen Pte Ltd). The pDEST20-HDAC1 construct was confirmed by DNA sequencing. Recombinant baculovirus was prepared using the Bac-To-Bac method following the manufacturer's instruction (Invitrogen Pte Ltd).
Expression of GST-HDAC1 was done by infecting SF9 cells (Invitrogen Pte Ltd) with pDEST20-HDAC1 baculovirus at MOI=1 for 48 h. Soluble cell lysate was incubated with pre-equilibrated Glutathione Sepharose 4B beads (Amersham) at 4° C. for 2 h. The beads were washed with PBS buffer for 3 times. The GST-HDAC1 protein was eluted by elution buffer containing 50 mM Tris, pH8.0, 150 mM NaCl, 1% Triton X-100 and 10 mM or 20 mM reduced Glutathione. The purified GST-HDAC1 protein was dialyzed with HDAC storage buffer containing 10 mM Tris, pH7.5, 100 mM NaCl and 3 mM MgCl2. 20% Glycerol was added to purified GST-HDAC1 protein before storage at −80° C.
In Vitro HDAC Assay for Determination of IC50 Values
The assay has been carried out in 96 well format and the BIOMOL fluorescent-based HDAC activity assay has been applied. […] Flur de lys Developer was added and the reaction was incubated for 10 min. Briefly, deacetylation of the substrate sensitizes it to the developer, which then generates a fluorophore. The fluorophore is excited with 360 nm light and the emitted light (460 nm) is detected on a fluorometric plate reader (Tecan Ultra Microplate detection system, Tecan Group Ltd.).
The analytical software, Prism 4.0 (GraphPad Software Inc) has been used to generate IC50 from a series of data.

Colo205 cells = test: Cell-based proliferation assay for determination of GI50 values (CyQUANT); set-up: species or system human
Protocol: Cell-Based Proliferation Assay for Determination of GI50 Values
Human cancer cell lines (e.g. Colo205) were obtained from ATCC. Colo205 cells were cultivated in RPMI 1640 containing 2 mM L-Glutamine, 5% FBS, 1.0 mM Na Pyruvate. Colo205 cells were seeded in 96-wells plate at 5000 cells per well. The plates were incubated at 37° C., 5% CO2, for 24 h. Cells were treated with compounds at various concentrations for 96 h. Cell growth was then monitored using CyQUANT® cell proliferation assay (Invitrogen Pte Ltd). Dose response curves were plotted to determine GI50 values for the compounds using XL-fit (ID Business Solution, Emeryville, Calif.). GI50 is defined as the concentration of compound required for 50% inhibition of cell growth.
The cellular or growth inhibition activity results of representative compounds are shown in Table 4 below (unit in the table is micromolar).

[2] = Homo sapiens, COLO 205, 96 h treatment
[3] = Homo sapiens, COLO 205, 96 h, 96 h treatment

Sequence of HDAC1 enzyme (recombinant GST-HDAC1) (Q13547 whole entry): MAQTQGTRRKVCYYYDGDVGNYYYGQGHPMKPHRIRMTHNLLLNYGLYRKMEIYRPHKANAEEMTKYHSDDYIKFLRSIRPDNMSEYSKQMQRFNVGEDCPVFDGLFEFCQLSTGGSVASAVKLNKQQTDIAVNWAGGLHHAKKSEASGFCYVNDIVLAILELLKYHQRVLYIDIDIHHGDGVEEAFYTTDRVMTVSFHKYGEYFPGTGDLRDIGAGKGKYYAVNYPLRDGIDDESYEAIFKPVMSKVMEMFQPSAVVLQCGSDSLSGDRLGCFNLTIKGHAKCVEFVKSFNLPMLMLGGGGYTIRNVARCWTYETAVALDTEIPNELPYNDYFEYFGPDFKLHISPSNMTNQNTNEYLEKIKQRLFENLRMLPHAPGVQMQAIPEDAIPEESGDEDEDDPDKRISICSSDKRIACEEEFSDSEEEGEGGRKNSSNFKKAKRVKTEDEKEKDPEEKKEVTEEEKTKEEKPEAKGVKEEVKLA

SMILES | IC50 [1] [nM] | GI50 (Colo205 cells; [2]) [nM] | GI50 (Colo205 cells; 96 h treatment) [nM] | GI50 (Colo205 cells; [3]) [nM]
CCN(CCC(C)C)Cc1c(-c2ccccc2)nc2cc(/C=C/C(=O)NO)ccn12 [Compound 121, 3-(3-{[Ethyl-(3-methyl-butyl)-amino]-methyl}-2-phenyl-imidazo[1,2-a]pyridin-7-yl)-N-hydroxy-acrylamide] | 30 | 490 | – | –
CCCN(Cc1c(C)nc2cc(C=CC(=O)NO)ccn12)CC(C)(C)C [Compound 110, 3-(3-{[(2,2-Dimethyl-propyl)-propyl-amino]-methyl}-2-methyl-imidazo[1,2a]pyridin-7-yl)-N-hydroxy-acrylamide] | 130 | – | 700 | –
COc1cc(Nc2c(CCc3ccccc3)nc3ccc(/C=C/C(=O)NO)cn23)cc(OC)c1OC [Compound 1, N-Hydroxy-3-[2-phenethyl-3-(3,4,5-trimethoxy-phenylamino)-imidazo[1,2-a]pyridin-6-yl]-acrylamide] | 150 | 2100 | – | –
CCN(CCC(C)C)Cc1c(C(C)(C)C)nc2cc(/C=C/C(=O)NO)ccn12 [Compound 89, 3-(2-tert-Butyl-3-{[ethyl-(3-methyl-butyl)-amino]-methyl}-imidazo[1,2-a]pyridin-7-yl)-N-hydroxy-acrylamide] | 60 | – | – | 350
CCN(CC)Cc1c(-c2ccccc2)nc2cc(C(=O)NO)ccn12 [Compound 79, 3-Diethylaminomethyl-2-phenyl-imidazo[1,2-a]pyridine-7-carboxylic acid hydroxyamide] | > 10000 | > 100000 | – | –
CCCCCCc1nc2cc(/C=C/C(=O)NO)ccn2c1NCCC(=O)NCCN(CC)CC [Compound 28, 3-{3-[2-(2-Diethylamino-ethylcarbamoyl)-ethylamino]-2-hexyl-imidazo[1,2-a]pyridin-7-yl}-N-hydroxy-acrylamide] | 110 | 7300 | – | –
CCCCNCc1c(C)nc2cc(/C=C/C(=O)NO)ccn12 [Compound 42, 3-(3-Butylaminomethyl-2-methyl-imidazo[1,2-a]pyridin-7-yl)-N-hydroxy-acrylamide] | 160 | 1500 | – | –
CCCCCc1nc2cc(/C=C/C(=O)NO)ccn2c1CN(CC)CCCC [Compound 129, 3-{3-[(Butyl-ethyl-amino)-methyl]-2-pentyl-imidazo[1,2-a]pyridin-7-yl}-N-hydroxy-acrylamide] | 40 | – | – | 150
CCCCN(CC)Cc1c(C(C)(C)C)nc2cc(/C=C/C(=O)NO)ccn12 [Compound 85, 3-{2-tert-Butyl-3-[(butyl-ethyl-amino)-methyl]-imidazo[1,2-a]pyridin-7-yl}-N-hydroxy-acrylamide] | 60 | 680 | – | –
CC(C)(C)CNCc1c(C(C)(C)C)nc2cc(/C=C/C(=O)NO)ccn12 [Compound 67, 3-[2-tert-Butyl-3-[(2,2-dimethyl-propylamino)-methyl]-imidazo[1,2-a]pyridin-7-yl]-N-hydroxy-acrylamide] | 190 | 1500 | – | –
CCCCCCc1nc2cc(/C=C/C(=O)NO)ccn2c1NCCC(=O)NCCOC [Compound 24, 3-{2-Hexyl-3-[2-(2-methoxy-ethylcarbamoyl)-ethylamino]-imidazo[1,2-a]pyridin-7-yl}-N-hydroxy-acrylamide] | 130 | 40000 | – | –
CCCCCCc1nc2cc(/C=C/C(=O)NO)ccn2c1NCCC(=O)N(C)C(C)C [Compound 37, 3-{2-Hexyl-3-[2-(isopropyl-methyl-carbamoyl)-ethylamino]-imidazo[1,2-a]pyridin-7-yl}-N-hydroxy-acrylamide] | 590 | 5300 | – | –
CCCCN(CC)Cc1c(C)nc2cc(/C=C/C(=O)NO)ccn12 [Compound 99, 3-{3-[(Butyl-ethyl-amino)-methyl]-2-methyl-imidazo[1,2-a]pyridin-7-yl}-N-hydroxy-acrylamide] | 30 | 180 | – | –
CCN(CC)CCNCc1c(-c2ccccc2)nc2cc(/C=C/C(=O)NO)ccn12 [Compound 47, 3-{3-[(2-Diethylamino-ethylamino)-methyl]-2-phenyl-imidazo[1,2a]pyridin-7-yl}-N-hydroxy-acrylamide] | 650 | 30000 | – | –
CCCN(CC)Cc1c(C)nc2cc(/C=C/C(=O)NO)ccn12 [Compound 100, 3-{3-[(Ethyl-propyl-amino)-methyl]-2-methyl-imidazo[1,2-a]pyridin-7-yl}-N-hydroxy-acrylamide] | 540 | – | – | 4600
CCCCc1nc2cc(/C=C/C(=O)NO)ccn2c1CN(CCC)CCCC [Compound 78, 3-{2-Butyl-3-[(butyl-propyl-amino)-methyl]-imidazo[1,2-a]pyridin-7-yl}-N-hydroxy-acrylamide] | 90 | 580 | – | –
CCN(CCC(C)(C)C)Cc1c(CCC(C)C)nc2cc(/C=C/C(=O)NO)ccn12 [Compound 143, 3-[3-{[(3,3-Dimethyl-butyl)-ethyl-amino]-methyl}-2-(3-methyl-butyl)-imidazo[1,2-a]pyridin-7-yl]-N-hydroxy-acrylamide] | 40 | 130 | – | –
CN(CCC(C)(C)C)Cc1c(C(C)(C)C)nc2cc(/C=C/C(=O)NO)ccn12 [Compound 109, 3-(2-tert-Butyl-3-{[(3,3-dimethyl-butyl)-methyl-amino]-methyl}-imidazo[1,2-a]pyridin-7-yl)-N-hydroxy-acrylamide] | 270 | 730 | – | –
COCCNc1c(CC(C)CC(C)(C)C)nc2ccc(/C=C/C(=O)NO)cn12 (centres unmarked) [Compound 15, (E)-N-hydroxy-3-(3-(2-methoxyethylamino)-2-(2,4,4-trimethylpentyl)imidazo[1,2-a]pyridin-6-yl)acrylamide] | 760 | 16000 | – | –
CCCCNCc1c(CCCC)nc2cc(/C=C/C(=O)NO)ccn12 [Compound 72, 3-(2-Butyl-3-butylaminomethyl-imidazo[1,2-a]pyridin-7-yl)-N-hydroxy-acrylamide] | 20 | 180 | – | –
CCCCc1nc2cc(/C=C/C(=O)NO)ccn2c1CN(C)C [Compound 83, 3-(2-Butyl-3-dimethylaminomethyl-imidazo[1,2-a]pyridin-7-yl)-N-hydroxy-acrylamide] | 40 | – | – | 230
O=C(/C=C/c1ccn2c(CNC3CC3)c(-c3ccccc3)nc2c1)NO [Compound 62, 3-(3-Cyclopropylaminomethyl-2-phenyl-imidazo[1,2-a]pyridin-7-yl)-N-hydroxy-acrylamide] | 310 | 2500 | – | –
CCCCc1nc2cc(/C=C/C(=O)NO)ccn2c1CN(CC)CC(CC)CC [Compound 118, 3-(2-Butyl-3-{[ethyl-(2-ethyl-butyl)-amino]-methyl}-imidazo[1,2-a]pyridin-7-yl)-N-hydroxy-acrylamide] | 150 | 390 | – | –
O=C(/C=C/c1ccn2cc(-c3ccccc3)nc2c1)NO [Compound 34, N-Hydroxy-3-(2-phenyl-imidazo[1,2-a]pyridin-7-yl)-acrylamide] | 870 | 42000 | – | –
CCN(CC)CCNCc1c(C(C)(C)C)nc2cc(/C=C/C(=O)NO)ccn12 [Compound 43, 3-{2-tert-Butyl-3-[(2-diethylamino-ethylamino)-methyl]-imidazo[1,2-a]pyridin-7-yl}-N-hydroxy-acrylamide] | 2000 | 34000 | – | –
CCC(CC)CN(CC)Cc1c(C)nc2cc(/C=C/C(=O)NO)ccn12 [Compound 101, 3-(3-{[Ethyl-(2-ethyl-butyl)-amino]-methyl}-2-methyl-imidazo[1,2-a]pyridin-7-yl)-N-hydroxy-acrylamide] | 10 | 50 | – | –
CC(C)(C)NCc1c(-c2ccccc2)nc2cc(C(=O)NO)ccn12 [Compound 70, 3-(tert-Butylamino-methyl)-2-phenyl-imidazo[1,2-a]pyridine-7-carboxylic acid hydroxyamide] | > 10000 | > 100000 | – | –
CCCCCN(CC)Cc1c(C(C)(C)C)nc2cc(/C=C/C(=O)NO)ccn12 [Compound 87, 3-{2-tert-Butyl-3-[(ethyl-pentyl-amino)-methyl]-imidazo[1,2-a]pyridin-7-yl}-N-hydroxy-acrylamide] | 130 | 750 | – | –
